Reference: patent US7267949B2, “Composition comprising methylphenidate and another drug” (Celltech Pharma Europe Limited, priority 1995, dated 2007)

Tests used:
[1] = target: CYP2C9 (P450 Isozyme 2C9) (Homo sapiens, UniProt P11712); assay: Tolbutamide hydroxylase activity in human microsome preparations; settings: microsomes
[2] = target: CYP2C19 (P450 Isozyme 2C19) (Homo sapiens, UniProt P33261); assay: Mephenytoin hydroxylase activity in human microsome preparations; settings: human, human microsome preparations, probe mephenytoin
[3] = target: CYP2D6 (P450 Isozyme 2D6) (Homo sapiens, UniProt P10635); assay: Bufuralol hydroxylase activity in human microsome preparations; settings: human
CYP2B (P450 Isozyme 2B) = assay: Lauric acid 11-hydroxylase activity in human microsome preparations; settings: human, human microsome preparations, probe lauric acid
rats = settings: 10 mg/kg, given 10 minutes following methylphenidate, within 15 to 25 minutes; cited from earlier work
P450 Isozyme 2C19 = P450 Isozyme 2C19 (Homo sapiens, UniProt P33261); assay: Mephenytoin hydroxylase activity in human microsome preparations; settings: test substance at 100 μM, human microsomes
P450 Isozyme 2D6 = P450 Isozyme 2D6 (Homo sapiens, UniProt P10635); assay: Bufuralol hydroxylase activity in human microsome preparations; settings: test substance at 100 μM, human microsomes
mouse liver = assay: Toxicity in the mouse liver; type: in vivo; settings: compared with racemic methylphenidate
Description: The invention is thus of particular utility in that proportion of the population in which the relevant enzymes have reduced efficiency, or that are receiving the cross-reacting drugs, e.g SSRIs, in therapy of, say, anxiety or depression.

P450 Isozyme 2B = assay: Lauric acid 11-hydroxylase activity in human microsome preparations; settings: test substance at 100 μM, human microsomes

Chain of P450 Isozyme 2C19 (P33261 whole entry): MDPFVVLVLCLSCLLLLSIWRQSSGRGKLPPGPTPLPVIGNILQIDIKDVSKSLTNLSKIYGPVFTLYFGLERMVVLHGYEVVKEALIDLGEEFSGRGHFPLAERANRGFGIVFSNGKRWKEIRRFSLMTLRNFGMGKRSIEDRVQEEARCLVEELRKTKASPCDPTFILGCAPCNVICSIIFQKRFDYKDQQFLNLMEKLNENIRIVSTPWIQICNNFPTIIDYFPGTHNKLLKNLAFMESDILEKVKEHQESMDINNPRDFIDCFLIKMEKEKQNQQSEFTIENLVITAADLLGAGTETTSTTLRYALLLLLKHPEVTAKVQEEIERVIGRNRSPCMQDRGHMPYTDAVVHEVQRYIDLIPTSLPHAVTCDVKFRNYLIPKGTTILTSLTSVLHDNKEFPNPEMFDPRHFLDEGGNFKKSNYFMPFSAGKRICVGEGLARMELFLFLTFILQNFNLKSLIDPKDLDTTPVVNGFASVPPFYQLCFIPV
Chain of P450 Isozyme 2D6 (P10635 whole entry): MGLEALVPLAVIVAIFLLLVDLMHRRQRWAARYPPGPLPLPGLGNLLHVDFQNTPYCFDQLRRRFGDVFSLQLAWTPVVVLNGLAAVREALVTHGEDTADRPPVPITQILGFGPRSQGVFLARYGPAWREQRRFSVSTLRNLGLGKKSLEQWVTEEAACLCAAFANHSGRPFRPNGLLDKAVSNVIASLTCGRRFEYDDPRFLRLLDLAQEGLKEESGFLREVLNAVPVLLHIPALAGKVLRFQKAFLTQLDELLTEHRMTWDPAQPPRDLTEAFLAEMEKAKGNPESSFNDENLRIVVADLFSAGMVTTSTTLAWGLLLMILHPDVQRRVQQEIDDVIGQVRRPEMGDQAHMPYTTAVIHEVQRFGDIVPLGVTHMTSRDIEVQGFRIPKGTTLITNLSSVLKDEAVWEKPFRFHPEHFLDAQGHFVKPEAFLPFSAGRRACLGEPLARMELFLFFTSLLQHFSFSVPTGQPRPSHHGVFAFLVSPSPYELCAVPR
Chain of CYP2D6 (P450 Isozyme 2D6) (P10635 whole entry): as above
Chain of CYP2C19 (P450 Isozyme 2C19) (P33261 whole entry): as the sequence (P33261 whole entry) above
Chain of CYP2C9 (P450 Isozyme 2C9) (P11712 whole entry): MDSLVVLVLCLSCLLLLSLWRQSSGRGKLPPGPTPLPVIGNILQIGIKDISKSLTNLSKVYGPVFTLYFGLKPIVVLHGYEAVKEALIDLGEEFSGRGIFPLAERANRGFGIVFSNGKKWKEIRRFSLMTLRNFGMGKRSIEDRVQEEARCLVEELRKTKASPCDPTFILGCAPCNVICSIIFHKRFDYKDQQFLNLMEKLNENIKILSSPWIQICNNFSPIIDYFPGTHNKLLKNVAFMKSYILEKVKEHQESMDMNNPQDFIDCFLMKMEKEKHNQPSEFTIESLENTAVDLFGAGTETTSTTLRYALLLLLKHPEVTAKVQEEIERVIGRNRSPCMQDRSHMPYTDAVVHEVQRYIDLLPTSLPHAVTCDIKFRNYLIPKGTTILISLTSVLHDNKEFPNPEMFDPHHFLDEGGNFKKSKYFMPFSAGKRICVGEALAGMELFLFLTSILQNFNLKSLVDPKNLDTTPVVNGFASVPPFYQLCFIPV

SMILES: COC(=O)C(c1ccccc1)C1CCCCN1 (racemic) [Racemic Methylphenidate, methylphenidate]
- inhibition at 100 µM [1]: 19%
- inhibition at 100 µM [2]: 44%
- inhibition at 100 µM ([3]; microsomes): 65%
- inhibition at 100 µM (CYP2B (P450 Isozyme 2B)): < 15%

SMILES: NCC(CC(=O)O)c1ccc(Cl)cc1 (stereo not shown) [Baclofen]
- block of methylphenidate-enhanced activity and stereotypics (rats): uniform block

SMILES: C=C[C@H]1C[N@@]2CC[C@H]1C[C@@H]2[C@@H](O)c1ccnc2ccc(OC)cc12 [Quinidine]
- inhibition at 10 µM ([3]; human microsome preparations, probe bufuralol): > 90%

SMILES: COC(=O)[C@H](c1ccccc1)[C@H]1CCCCN1 [dtmp, d-threo-methylphenidate]
- % Inhibition of Enzyme Activity (Mephenytoin hydroxylase, 2C19) (P450 Isozyme 2C19): 31%
- % Inhibition of Enzyme Activity (Bufuralol hydroxylase, 2D6) (P450 Isozyme 2D6): 64%
- toxicity in the mouse liver (mouse liver): less toxicity in the mouse liver than racemic methylphenidate
- % Inhibition of Enzyme Activity (Lauric acid 11-hydroxylase, 2B) (P450 Isozyme 2B): <20%

SMILES: COC(=O)[C@@H](c1ccccc1)[C@@H]1CCCCN1 [ltmp]
- % Inhibition of Enzyme Activity (Mephenytoin hydroxylase, 2C19) (P450 Isozyme 2C19): 33%
- % Inhibition of Enzyme Activity (Bufuralol hydroxylase, 2D6) (P450 Isozyme 2D6): 41%
- % Inhibition of Enzyme Activity (Lauric acid 11-hydroxylase, 2B) (P450 Isozyme 2B): <20%
